Test results published in PubChem BioAssay (NCI).
Several values for one entry are separate records, joined by “and”; a condition that tells them apart may be missing. Equal entries are not always repeated.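 How tested: cells in 96-well plates exposed to compound for 48 hours at five concentrations. GI50: concentration for 50% inhibition of growth. TGI is the concentration that stops growth completely.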

Key:
Experiment in all cases: NCI tumour cell line growth inhibition, 48 h
[1] = tested on: 786-0 renal
[2] = tested on: A498 renal
[3] = tested on: A549 NSCLC
[4] = tested on: ACHN renal
[5] = tested on: CAKI-1 renal
[6] = tested on: CCRF-CEM leukemia
[7] = tested on: COLO 205 colon
[8] = tested on: DLD-1 colon
[9] = tested on: DMS 273 small cell lung
[10] = tested on: HCC-2998 colon
[11] = tested on: HCT-116 colon
[12] = tested on: HCT-15 colon
[13] = tested on: HL-60(TB) leukemia
[14] = tested on: HOP-18 NSCLC
[15] = tested on: HOP-92 NSCLC
[16] = tested on: HT29 colon
[17] = tested on: IGROV1 ovarian
[18] = tested on: K-562 leukemia
[19] = tested on: KM12 colon
[20] = tested on: KM20L2 colon
[21] = tested on: LOX IMVI melanoma
[22] = tested on: LXFL 529 NSCLC
[23] = tested on: M14 melanoma
[24] = tested on: M19-MEL melanoma
[25] = tested on: MALME-3M melanoma
[26] = tested on: MOLT-4 leukemia
[27] = tested on: NCI-H226 lung
[28] = tested on: NCI-H23 lung
[29] = tested on: NCI-H460 lung
[30] = tested on: NCI-H522 lung
[31] = tested on: OVCAR-3 ovarian
[32] = tested on: OVCAR-4 ovarian
[33] = tested on: OVCAR-5 ovarian
[34] = tested on: OVCAR-8 ovarian
[35] = tested on: RPMI-8226 leukemia
[36] = tested on: RXF 393 renal
[37] = tested on: RXF-631 renal
[38] = tested on: SF-268 CNS
[39] = tested on: SK-MEL-2 melanoma
[40] = tested on: SK-MEL-28 melanoma
[41] = tested on: SK-OV-3 ovarian
[42] = tested on: SN12C renal
[43] = tested on: SNB-75 CNS
[44] = tested on: SNB-78 CNS
[45] = tested on: SW-620 colon
[46] = tested on: TK-10 renal
[47] = tested on: U251 CNS
[48] = tested on: UACC-257 melanoma
[49] = tested on: UACC-62 melanoma
[50] = tested on: UO-31 renal
[51] = tested on: BT-549 breast
[52] = tested on: DMS 114 small cell lung
[53] = tested on: DU-145 prostate
[54] = tested on: EKVX NSCLC
[55] = tested on: HOP-62 NSCLC
[56] = tested on: HS 578T breast
[57] = tested on: MCF7 breast
[58] = tested on: MDA-MB-231 breast
[59] = tested on: MDA-MB-435
[60] = tested on: MDA-N
[61] = tested on: NCI/ADR-RES ovarian
[62] = tested on: PC-3 prostate
[63] = tested on: SF-295 CNS
[64] = tested on: SF-539 CNS
[65] = tested on: SK-MEL-5 melanoma
[66] = tested on: SNB-19 CNS
[67] = tested on: SR leukemia
[68] = tested on: T-47D breast
[69] = tested on: XF 498 CNS

## CCN(CC)CCCC(C)Nc1c(Sc2cnc3cc(Cl)ccc3c2NC(C)CCCN(CC)CC)cnc2cc(Cl)ccc12 (stereo not given)
[1]
  TGI: 3.01 µM
[2]
  TGI: 3.31 µM
[3]
  TGI: 3.24 µM
[4]
  TGI: 3.82 µM
[5]
  TGI: 2.86 µM
[6]
  TGI: 5.21 µM
[7]
  TGI: 2.88 µM
[8]
  TGI: 3.84 µM
[9]
  TGI: 3.17 µM
[10]
  TGI: 1.14 µM
[11]
  TGI: 2.95 µM
[12]
  TGI: 3.16 µM
[13]
  TGI: 3.62 µM
[14]
  TGI: 4.49 µM
[15]
  TGI: 4.07 µM
[16]
  TGI: 3.65 µM
[17]
  TGI: 3.51 µM
[18]
  TGI: 3.7 µM
[19]
  TGI: 3.79 µM
[20]
  TGI: 3.09 µM
[21]
  TGI: 3.36 µM
[22]
  TGI: 3.38 µM
[23]
  TGI: 3.29 µM
[24]
  TGI: 3.02 µM
[25]
  TGI: 3.71 µM
[26]
  TGI: 4.57 µM
[27]
  TGI: 3.52 µM
[28]
  TGI: 9.25 µM
[29]
  TGI: 3.23 µM
[30]
  TGI: 3.15 µM
[31]
  TGI: 3.78 µM
[32]
  TGI: 3.22 µM
[33]
  TGI: 3.34 µM
[34]
  TGI: 3.15 µM
[35]
  TGI: 4.55 µM
[36]
  TGI: 3220 nM
[37]
  TGI: 4.48 µM
[38]
  TGI: 3.83 µM
[39]
  TGI: 3.3 µM
[40]
  TGI: 3.34 µM
[41]
  TGI: 3.08 µM
[42]
  TGI: 3.53 µM
[43]
  TGI: 2980 nM
[44]
  TGI: 4.74 µM
[45]
  TGI: 2.92 µM
[46]
  TGI: 3.24 µM
[47]
  TGI: 2.99 µM
[48]
  TGI: 3.49 µM
[49]
  TGI: 3.13 µM
[50]
  TGI: 35.5 µM

## O=[N+]([O-])c1ccc2c(Nc3ccccc3-c3ccccc3Nc3c4ccccc4nc4cc([N+](=O)[O-])ccc34)c3ccccc3nc2c1
[1]
  TGI: 13.4 µM
[2]
  TGI: 52.3 µM
[3]
  TGI: > 56.2 µM
[4]
  TGI: 49 µM
[51]
  TGI: 7.74 µM
[5]
  TGI: 50.6 µM
[6]
  TGI: 37.6 µM
[7]
  TGI: 9.53 µM
[8]
  TGI: > 48.4 µM
[52]
  TGI: 27.3 µM
[9]
  TGI: > 82.9 µM
[53]
  TGI: 35.2 µM
[54]
  TGI: 43 µM
[10]
  TGI: 16.6 µM
[11]
  TGI: 6.38 µM
[12]
  TGI: 17.6 µM
[13]
  TGI: 15.1 µM
[14]
  TGI: > 100 µM
[55]
  TGI: 41.4 µM
[15]
  TGI: 24.4 µM
[56]
  TGI: 14900 nM
[16]
  TGI: 26.7 µM
[17]
  TGI: 36.1 µM
[18]
  TGI: 15.5 µM
[19]
  TGI: 36.9 µM
[20]
  TGI: > 65 µM
[21]
  TGI: 47.4 µM
[22]
  TGI: > 35.1 µM
[23]
  TGI: 18.4 µM
[24]
  TGI: 19.8 µM
[25]
  TGI: 50.2 µM
[57]
  TGI: 39.3 µM
[58]
  TGI: 6.38 µM
[59]
  TGI: 3.8 µM
[60]
  TGI: 3.29 µM
[26]
  TGI: 50.4 µM
[27]
  TGI: 32.4 µM
[28]
  TGI: 34.7 µM
[29]
  TGI: 15.3 µM
[30]
  TGI: 17.4 µM
[61]
  TGI: 25.7 µM
[31]
  TGI: 29.1 µM
[32]
  TGI: 57.2 µM
[33]
  TGI: 56.8 µM
[34]
  TGI: 39.9 µM
[62]
  TGI: 6.61 µM
[35]
  TGI: > 39.9 µM
[36]
  TGI: 17400 nM
[37]
  TGI: > 82.9 µM
[38]
  TGI: 49.8 µM
[63]
  TGI: 60.5 µM
[64]
  TGI: 39.5 µM
[39]
  TGI: 6.55 µM
[40]
  TGI: 59.1 µM
[65]
  TGI: 8.09 µM
[41]
  TGI: > 56.2 µM
[42]
  TGI: 58.1 µM
[66]
  TGI: 43.8 µM
[43]
  TGI: 34500 nM
[44]
  TGI: > 100 µM
[67]
  TGI: 15.4 µM
[45]
  TGI: 11.1 µM
[68]
  TGI: 20.3 µM
[46]
  TGI: 36.9 µM
[47]
  TGI: 22.9 µM
[48]
  TGI: 49.8 µM
[49]
  TGI: 11.5 µM
[50]
  TGI: 28.8 µM
[69]
  TGI: 4.98 µM

## COc1cccc2c1C(=O)c1c(O)c3c(c(O)c1C2=O)C[C@@](O)(C(=O)CO)C[C@@H]3OC1CC(N2CCOCC2C#N)C(O)C(C)O1 (stereo not given in full)
[1]
  GI50: 0.0534 nM and 0.0331 nM
  TGI: 0.00224 µM and 0.00151 µM and 0.00447 µM
[2]
  TGI: 0.00104 µM and 0.000139 µM
[4]
  GI50: 0.078 nM and 0.023 nM
[51]
  TGI: 0.000234 µM and 0.00023 µM
[53]
  TGI: 0.02 µM
[54]
  TGI: 0.00075 µM and 0.000901 µM
[10]
  TGI: 0.000208 µM and 0.000237 µM
[15]
  TGI: 0.000614 µM and 0.000566 µM
[56]
  TGI: 0.0535 nM and 0.221 nM
[19]
  TGI: 0.00155 µM and 0.000377 µM and 0.00259 µM
[22]
  GI50: 0.000245 µM
[23]
  GI50: 0.0812 nM
  TGI: 0.000108 µM and 0.000527 µM
[58]
  TGI: 0.000812 µM
[30]
  TGI: 0.000411 µM and 0.000129 µM
[62]
  TGI: 0.000124 µM and 0.00112 µM
[36]
  TGI: 0.0982 nM and 0.0513 nM
[37]
  TGI: 0.00227 µM and 0.0215 µM
[64]
  TGI: 0.0001 µM and 0.000109 µM
[40]
  TGI: 0.000481 µM and 0.000552 µM
[43]
  TGI: 0.11 nM and 0.0613 nM
[67]
  GI50: 0.0468 nM
[68]
  TGI: 0.00327 µM and 0.00581 µM
[46]
  GI50: 0.000278 µM and 0.000374 µM
[69]
  TGI: 0.000397 µM and 0.000282 µM
